Among the test systems are HCC-2998 colon; HCT-15 colon; M14 melanoma; NCI-H23 lung; NCI-H522 lung; SF-268 CNS; SF-539 CNS; SN12C renal; SW-620 colon; U251 CNS.
Common to all, as to test: DTP human tumour cell line panel, 48 h

Each structure is given as a SMILES string.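 The compound was tested at five concentrations on cells cultured in 96-well plates, with a 48-hour exposure period. At the GI50, growth is halved. TGI is the concentration that stops growth completely.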 A value given as a limit tells only on which side of the number the result lay.

On to `COc1cc([N+](=O)[O-])c2ncccc2c1[N+](=O)[O-]`, for which the GI50 is 4.82 µM in the assay with HCC-2998 colon; 5.39 µM with HCT-15 colon; 4.24 µM in the assay with M14 melanoma; 3.91 µM in the assay with NCI-H23 lung; 1130 nM in the assay with NCI-H522 lung; 3.72 µM in the assay with SF-268 CNS. Also, the GI50 was 3.61 µM with SF-539 CNS, 12.5 µM in the assay with SN12C renal, 1820 nM in the assay on SW-620 colon and 4.45 µM in the assay on U251 CNS. Further, the TGI turned out to be 17.8 µM in the assay on HCC-2998 colon; 21.6 µM with HCT-15 colon; 15.8 µM in the assay on M14 melanoma; 16.1 µM in the assay on NCI-H23 lung; 2.62 µM in the assay on NCI-H522 lung; 15.3 µM in the assay on SF-268 CNS. Also, the TGI was found to be 13.6 µM in the assay with SF-539 CNS, 25.3 µM in the assay on SN12C renal, 3.44 µM with SW-620 colon and 16.6 µM in the assay with U251 CNS.

Regarding `Cc1c(C(=O)CSc2nc3ccccc3[nH]2)c(=O)n(-c2ccccc2)n1C`, the TGI in the assay with HCC-2998 colon, in the assay with HCT-15 colon, in the assay on M14 melanoma, with NCI-H23 lung, in the assay on NCI-H522 lung and with SF-268 CNS was > 100 µM in each case. Moreover, the TGI with SF-539 CNS, in the assay with SN12C renal, in the assay with SW-620 colon and with U251 CNS was > 100 µM each time.

Consider `CNC(=O)CN(CC(N)=O)C(N)=O`, for which the TGI with HCC-2998 colon, in the assay with HCT-15 colon, in the assay with M14 melanoma, with NCI-H23 lung, in the assay with NCI-H522 lung and in the assay on SF-268 CNS was > 100 µM throughout. The TGI in the assay with SF-539 CNS, in the assay on SW-620 colon and with U251 CNS was > 100 µM in each case.

As to `CC1=NN(C(=O)c2ccccc2O)C(=O)/C1=C/c1cccc([N+](=O)[O-])c1`, the TGI in the assay on HCC-2998 colon is > 100 µM; in the assay with HCT-15 colon, > 100 µM; in the assay on M14 melanoma, > 100 µM; in the assay on NCI-H23 lung it was > 31.8 µM; with NCI-H522 lung, 54.6 µM; in the assay with SF-268 CNS it was > 100 µM. The TGI in the assay with SF-539 CNS was 5.88 µM; with SN12C renal, 98.7 µM; in the assay with SW-620 colon, > 100 µM; in the assay with U251 CNS, > 100 µM.

`N=C1C=C(N)C(=O)c2[nH]c(=O)ccc21`: the TGI with HCC-2998 colon was 35.8 µM; in the assay with HCT-15 colon, 4.06 µM; in the assay with M14 melanoma, 28.7 µM; in the assay on NCI-H23 lung it was 4.09 µM; in the assay on NCI-H522 lung, 3.54 µM; in the assay with SF-268 CNS, 3.59 µM. Moreover, the TGI came to 3.73 µM in the assay on SF-539 CNS, 3.16 µM in the assay with SN12C renal, 6.7 µM with SW-620 colon and 3.6 µM with U251 CNS.

As for `Nc1[nH]c(=O)ncc1CO`, the GI50 in the assay on HCC-2998 colon is > 100 µM; in the assay with HCT-15 colon it was > 100 µM; in the assay with M14 melanoma, > 100 µM; with NCI-H23 lung, > 100 µM; in the assay with NCI-H522 lung, > 100000 nM; with SF-268 CNS, > 100 µM. The GI50 was > 100 µM with SF-539 CNS, > 100 µM in the assay on SN12C renal, > 100000 nM in the assay on SW-620 colon and > 100 µM with U251 CNS. For the same molecule, the TGI in the assay with HCC-2998 colon, in the assay on HCT-15 colon, in the assay on M14 melanoma, in the assay with NCI-H23 lung, in the assay on NCI-H522 lung and with SF-268 CNS was > 100 µM each time. Moreover, the TGI in the assay with SF-539 CNS, in the assay on SN12C renal, in the assay on SW-620 colon and in the assay on U251 CNS was > 100 µM in each case.

With `COc1ccc(C(O)CC(O)(C(F)(F)F)C(F)(F)F)cc1` (stereo not given), the TGI in the assay with HCC-2998 colon is > 100 µM; in the assay with HCT-15 colon, > 100 µM; in the assay on M14 melanoma it was > 100 µM; in the assay with NCI-H23 lung, 77.5 µM; in the assay with NCI-H522 lung it was > 100 µM; in the assay on SF-268 CNS, > 100 µM. In addition, the TGI was 55.3 µM in the assay with SF-539 CNS, 60.8 µM with SN12C renal, > 100 µM with SW-620 colon and > 100 µM in the assay with U251 CNS.

Take `Cc1nc(N)nc2ccccc12`: the GI50 in the assay on HCC-2998 colon is > 100 µM. Further, the TGI with HCC-2998 colon, in the assay with HCT-15 colon, in the assay on M14 melanoma, in the assay on NCI-H23 lung, in the assay with NCI-H522 lung and with SF-268 CNS was > 100 µM each time. Moreover, the TGI in the assay with SF-539 CNS, in the assay on SN12C renal, with SW-620 colon and in the assay on U251 CNS was > 100 µM throughout.

In the case of `C=[CH][Sn]([CH]=C)([O]c1cccc2cccnc12)[O]c1cccc2cccnc12`, the GI50 with HCC-2998 colon was 4.44 µM; in the assay with HCT-15 colon it was 2.36 µM; in the assay with M14 melanoma, 2.11 µM; in the assay on NCI-H23 lung it was 2.32 µM; with NCI-H522 lung, 930 nM; in the assay with SF-268 CNS, 5.12 µM. For the same molecule, the GI50 with SF-539 CNS was 2.85 µM; with SN12C renal, 4.45 µM; with SW-620 colon it was 1130 nM; with U251 CNS, 2.58 µM. In addition, the TGI with HCC-2998 colon amounted to 8.85 µM; in the assay on HCT-15 colon it was 6.4 µM; with M14 melanoma it was 5.92 µM; in the assay with NCI-H23 lung it was 6.87 µM; in the assay on NCI-H522 lung, 3.36 µM; in the assay on SF-268 CNS, 29.9 µM. For the same molecule, the TGI amounted to 9.27 µM in the assay with SF-539 CNS, 17.5 µM with SN12C renal, 3.44 µM with SW-620 colon and 6.67 µM in the assay on U251 CNS.

In the case of `CCOc1ccc(C(CN2CCOCC2)C(C)=O)cc1OC` (stereo not given), the TGI was found to be 32.3 µM in the assay with HCC-2998 colon; 22.5 µM in the assay on HCT-15 colon; 33.7 µM in the assay with M14 melanoma; 32.9 µM in the assay on NCI-H23 lung; 2.46 µM in the assay on NCI-H522 lung; 41 µM in the assay on SF-268 CNS. Moreover, the TGI is 32.8 µM in the assay with SF-539 CNS, 31.2 µM in the assay on SN12C renal, 31.2 µM with SW-620 colon and 31.9 µM with U251 CNS.

The GI50 is the concentration giving 50% growth inhibition. A word on the TGI: it is the concentration at which net growth stops. A higher TGI goes with less potent growth arrest.

(Values after PubChem BioAssay (NCI).)
